Assay results: patent US20060258729A1, “Antibacterial pyrazole carboxylic acid hydrazides” (priority 2002, published 2006)
Values after ≈ are worked out from the molar mass of the structure shown.

What was measured:
S. aureus Smith strain = assay: Inhibition of bacterial growth (MIC), Sm; assay type: cell-based, Staphylococcus aureus; conditions: Staphylococcus aureus, 16 to 18 hours, 37° C., read-out: Minimum Inhibitory Concentration for Bacterial Growth, Sm
How it was run: (§1)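 Compounds are diluted two-fold in DMSO over 11 concentrations, commonly 80 down to 0.078 μg/mL, then combined with bacteria at 1×10^5 CFU/mL in LB or BHI (final DMSO 1%).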

B. subtilis pol IIIC = target: T1, B. subtilis pol IIIC (Bacillus subtilis, UniProt P13267); assay: Classical enzyme kinetic analyses (Lineweaver-Burk) with pol IIIC; assay type: biochemical; conditions: variable substrate dGTP; Compound 17 at 0, 20, 60 μM; HB-EMAU at 0, 1.6, 4.8 μM
T1 construct: made in house
Protocol: The variable substrate in the experiments for FIGS. 1A and 1B was dGTP. See text for details.
Classical enzyme kinetic analyses were performed with Compound 17 and pol IIIC in which reaction velocity was measured as a function of each substrate (dGTP) concentration at several inhibitor concentrations (0, 20, and 60 μM). The results are graphed in a double reciprocal plot by the method of Lineweaver and Burk in FIG. 1A and show the effect of varying dGTP.
Compounds of the anilinouracil (AU) family, classical DNA polymerase inhibitors, inhibit pol IIIC strictly by “competitive” inhibition. An example is shown in the double reciprocal plot in FIG. 1B for the compound N3-hydroxybutyl 6-(3′-ethyl-4′-methylanilino) uracil (HB-EMAU), tested at 0, 1.6, and 4.8 μM. Such AU compounds compete with the dGTP substrate for binding to the enzyme (Clements et al., J. Biol. Chem. 250, 522-526 (1975)). “Noncompetive” inhibitors are exemplified by the class of HIV reverse transcriptase inhibitors, 4,5,6,7-tetrahydro-5-methylimidazo[4,5,1-jk][1,4]benzodiazepin-2(1H)-one (TIBO), i.e., TIBO compounds bind a site adjacent to the active site (Spence et al., Science 267, 988-993 (1995)). In contrast, the data in FIG. 1A clearly indicate that Compound 17, a pyrazole carboxylic acid hydrazide, inhibits pol IIIC by an “uncompetitive” mechanism.

[1] = system: methicillin-resistant S. aureus strain 1094; assay: Inhibition of bacterial growth (MIC), MRSA; assay type: cell-based, Staphylococcus aureus; conditions: Staphylococcus aureus, MRSA, 16 to 18 hours, 37° C., read-out: Minimum Inhibitory Concentration for Bacterial Growth, MRSA
How it was run: as §1

T1 sequence (P13267 whole entry): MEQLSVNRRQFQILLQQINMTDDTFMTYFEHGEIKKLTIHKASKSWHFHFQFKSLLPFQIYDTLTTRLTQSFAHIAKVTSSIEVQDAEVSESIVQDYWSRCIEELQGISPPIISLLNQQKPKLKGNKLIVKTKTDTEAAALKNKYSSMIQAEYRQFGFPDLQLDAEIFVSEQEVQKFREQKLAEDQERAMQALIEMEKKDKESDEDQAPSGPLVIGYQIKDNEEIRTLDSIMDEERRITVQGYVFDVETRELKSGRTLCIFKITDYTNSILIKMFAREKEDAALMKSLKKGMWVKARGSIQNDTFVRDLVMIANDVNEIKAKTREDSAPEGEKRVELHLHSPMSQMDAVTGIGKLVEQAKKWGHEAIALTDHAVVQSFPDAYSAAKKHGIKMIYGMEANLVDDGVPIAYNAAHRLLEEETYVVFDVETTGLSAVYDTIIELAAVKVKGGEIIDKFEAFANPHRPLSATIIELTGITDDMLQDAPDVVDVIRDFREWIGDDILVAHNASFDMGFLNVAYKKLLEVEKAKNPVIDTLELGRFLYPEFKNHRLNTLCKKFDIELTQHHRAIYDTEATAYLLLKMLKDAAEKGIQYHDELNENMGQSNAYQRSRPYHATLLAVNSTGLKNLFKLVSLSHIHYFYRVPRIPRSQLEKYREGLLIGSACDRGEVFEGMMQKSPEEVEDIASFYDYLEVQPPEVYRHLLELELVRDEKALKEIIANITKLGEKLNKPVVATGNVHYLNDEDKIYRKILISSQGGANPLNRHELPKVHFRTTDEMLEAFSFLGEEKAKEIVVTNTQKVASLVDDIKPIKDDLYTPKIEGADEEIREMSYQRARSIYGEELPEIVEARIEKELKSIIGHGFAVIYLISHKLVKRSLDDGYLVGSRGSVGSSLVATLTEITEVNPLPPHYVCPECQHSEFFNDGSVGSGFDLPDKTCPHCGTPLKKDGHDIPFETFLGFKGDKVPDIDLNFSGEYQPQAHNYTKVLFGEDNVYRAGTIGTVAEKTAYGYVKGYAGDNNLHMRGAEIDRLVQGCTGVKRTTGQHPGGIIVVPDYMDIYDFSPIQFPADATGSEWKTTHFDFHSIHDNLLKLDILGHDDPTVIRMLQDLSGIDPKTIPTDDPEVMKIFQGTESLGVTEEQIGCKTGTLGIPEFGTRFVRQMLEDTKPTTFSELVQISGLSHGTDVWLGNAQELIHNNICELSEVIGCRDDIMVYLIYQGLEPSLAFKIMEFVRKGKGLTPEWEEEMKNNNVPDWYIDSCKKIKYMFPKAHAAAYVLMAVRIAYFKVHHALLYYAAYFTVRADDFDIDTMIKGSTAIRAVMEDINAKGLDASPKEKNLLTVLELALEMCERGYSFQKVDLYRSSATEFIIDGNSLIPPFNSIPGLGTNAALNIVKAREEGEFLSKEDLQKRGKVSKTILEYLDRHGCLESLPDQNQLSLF

In the case of `COc1ccc(-c2cc(C(=O)NN=Cc3cc(OC)c(OC)c(OC)c3)[nH]n2)cc1` [Compound 17], the MIC (S. aureus Smith strain) is reported as 2.5 mg/L (≈ 6.09 µM), the “Mechanism of inhibition of pol IIIC (double reciprocal plot)” value (B. subtilis pol IIIC) is reported as “uncompetitive inhibition mechanism” and the MIC [1] is reported as 2.5 mg/L (≈ 6.09 µM).
